Source: patent US5688760A, “Polypeptides having bone resorption inhibitory activity comprising PTHrP-derived sequences” (Genentech, Inc., priority 1990, dated 1997)
Non-standard residues stand in square brackets, D forms with d. No end group written: not given here. 2Nal = N[C@@H](Cc1ccc2ccccc2c1)C(=O)O; Aib = CC(C)(N)C(=O)O

Key:
isolated osteoclasts = test: Osteoclast isolation and assay of bone resorption (resorption pits per osteoclast on bovine cortical bone slices); type: cell-based, neonatal female Wistar rats; set-up: key to Activity (bone resorption inhibitory activity), Table 3 Effect of Amino Acid Substitutions: bone resorption inhibitory activity is designated by a "+"; inactivity by "-"; settings: for Activity (bone resorption inhibitory activity), Table 3 Effect of Amino Acid Substitutions: amino acid derivatives of PTHrP (107-111)
Method: For example, osteoclasts may be settled on sections of bone and incubated in the presence of, and in the absence of test compounds. Osteoclasts can be determined histochemically and can then be removed following incubation with bone sections by, for example, ultrasonification and the bone surface examined by microscopy to measure resorption pits produced per isolated osteoclasts. The number of resorption pits may be counted and their areas quantitated, for example by digitized morphometry. The variants or derivatives with inhibitory activity on bone resorption will, of course, inhibit the activity of osteoclasts in resorption of bone, which can be readily ascertained by analysis of bone sections. Likewise, variants or derivatives which have no effect in inhibiting bone resorption or which stimulate bone resorption will be evidenced by the formation of resorption pits on bone-sections.
Osteoclasts were isolated from neonatal female Wistar rats by curetting the long bones into culture medium (HEPES-buffered Medium 199 [Trademark Flow Laboratories]). The resulting cell suspension was allowed to settle onto 100 μm thick slices of devitalized bovine cortical bone for 20 minutes before rinsing. After this brief settling period, the majority of contaminating cells are removed in the rinsing step, resulting in a functionally pure population of osteoclasts. The bone slices were then incubated in tissue culture medium (Eagle's Minimum Essential Medium [Flow Laboratories] supplemented, with 100 iU/ml benzylpenicillin 100 μg/ml streptomycin and 10% heat-inactivated fetal bovine serum) at 37° C. in 95% air, 5% CO2, pH 7.3 in the presence or absence of test agents. After 24 hours, the cells were fixed, reacted cytochemically for tartrate-resistant acid phosphatase (TRACP) and the number of multinucleated cells with strong reactions for TRACP (i.e. osteoclasts) counted. The cells were then stripped by ultrasonication in 0.25M NH4 OH prior to processing for scanning electronic microscopy. The entire surface of each bone slice was scanned and the number of resorption pits counted. In selected experiments the depth of the pits are assessed. There was a minimum of 6 replicates for each concentration point for each peptide. Each experiment was repeated at least 3 times. Statistical significance was determined by using Student's t test to compare each treatment with control. Bone resorption can be expressed as pit No./OC/bone slice, total excavated plan area/OC/bone slice, or total excavated volume of bone/OC/bone slice. Such assays are routine and readily amenable to the screening of large numbers of compounds for bone resorption inhibitory activity.

[1] = test system: Cyclic AMP in osteoclasts; test: Cyclic AMP assay in isolated osteoclasts; type: cell-based, rat; settings: osteoclasts pretreated with isobutylmethylxanthine 1 mM, peptide for 10 minutes
Method: Recombinant hPTHrP(1-141) and recombinant hPTHrP(1-108) were prepared and purified as previously described (Suva et al., Supra, incorporated herein by reference). hPTHrP(107-139), […]COOH (SEQ ID NO:2), and other peptides were synthesized as carboxy-terminal amides, using an Applied Biosystems Peptide Synthesizer Model 430. Following HF cleavage, peptides were extracted from the resin with 60% (v/v) acetonitrile and 0.1% (v/v) trifluoroacetic acid and lyophilized. The crude peptides were purified by […] (2.5×90 cm column, C18, 20-30 μm. 300 Å resin, Vydac, California) with an acetonitrile gradient in the presence of 0.1% trifluoroacetic acid. The composition of the synthetic peptides was verified by quantitative amino acid analysis using a Beckman 6300 amino acid analyser. Cyclic AMP Assay: Osteoclasts were isolated as described above into 12-well tissue culture plates (Linbro). The cultures were pretreated with isobutylmethylxanthine (1 mM) for 20 minutes prior to administration of test peptides for 10 minutes. Cyclic AMP was extracted with 95% (v/v) ethanol/1 mM HCl and measured by radioimmunoassay. Four to six replicate wells were used in each treatment group.

[2] = In vivo serum calcium levels after intravenous injection in rats; settings: 100 nanograms 100 grams body weight, saline control about 2.58
Method: Mammalian serum calcium levels are tightly controlled by homeostatic mechanisms and show little variation. A model peptide, PTHrP 107-139 was injected intraveneously into rats (n=10) in an amount of 100 nanograms 100 grams body weight whereafter serum calcium levels were measured at 30 and 60 minutes by atomic absorption spectrascopy according to standard methods. Control groups of animals were injected with a positive control, calcitonin, which causes a decrease in serum calcium levels, as well as a negative control in the form of saline. Two groups of 10 rats ware used in these controls.

In the case of “T R SmeA W (TRS[Aib]W; not fully specified (C-terminus); printed as T R SmeA W) [me is α-methyl]”, the “Activity (bone resorption inhibitory activity), Table 3 Effect of Amino Acid Substitutions” value (isolated osteoclasts) is reported as “+”.
With calmon calcitonin [reference compound] the “cyclic AMP response” value [1] was 2.5 fold.
In the case of “Thr Arg Ser Ala Trp Leu Asp Ser Gly Val Thr Gly Ser Gly Leu Glu Gly Asp His Leu Ser Asp Thr Ser Thr Thr Ser Leu Glu Leu Asp Ser Arg-COOH (TRSAWLDSGVTGSGLEGDHLSDTSTTSLELDSR-OH) [PTHrP(107-139)]”, the “serum calcium level at 30 minutes after injection” value [2] is reported as 2.35 millimolar, the “serum calcium level at 60 minutes after injection” value [2] is reported as “about 2.55 millimolar” and the “inhibition of resorption (pit number/osteoclast number), FIG. 2” value (isolated osteoclasts; peptides at 1 nM) is reported as “substantial inhibition”. The “cyclic AMP response” value [1] was “no elevation”.
For “T R S npA (TRS[2Nal]; not fully specified (C-terminus); printed as T R S npA) [npA is 3(2-napthyl)alanine]”, the “Activity (bone resorption inhibitory activity), Table 3 Effect of Amino Acid Substitutions” value (isolated osteoclasts) was “+”.
With CC1CNCCN1S(=O)(=O)c1cccc2cnccc12 (stereo not shown) [H7, 1-(5-isoquinolinesulfonyl)-2 methyl piperazine, reference compound] the “effect of PTHrP(107-139) on osteoclasts in the presence of protein kinase C inhibitor” value (isolated osteoclasts) was “blocked”.
For calcitonin [reference compound], the “serum calcium level at 30 minutes after injection” value [2] was “about 2.35 millimolar”.
With T R C A W P G T C (TRCAWPGTC) the “Activity (bone resorption inhibitory activity), Table 3 Effect of Amino Acid Substitutions” value (isolated osteoclasts) was “+”.
